Experimental data: paper PMC6199492, “Comprehensive Characterization of Toxoplasma Acyl Coenzyme A-Binding Protein TgACBP2 and Its Critical Role in Parasite Cardiolipin Metabolism” (mBio, 2018)
pKd: −log10 of the molar value.

Target: T1, TgACBP2 (Toxoplasma gondii, UniProt A0A7J6JZP9)
T1 construct: gene TGRH88_042420; recombinant TgACBP2 with C-terminal GST tag (tag kept), expressed in E. coli and purified; native HA-tagged protein ~36 kDa
T1 sequence (A0A7J6JZP9 1-311): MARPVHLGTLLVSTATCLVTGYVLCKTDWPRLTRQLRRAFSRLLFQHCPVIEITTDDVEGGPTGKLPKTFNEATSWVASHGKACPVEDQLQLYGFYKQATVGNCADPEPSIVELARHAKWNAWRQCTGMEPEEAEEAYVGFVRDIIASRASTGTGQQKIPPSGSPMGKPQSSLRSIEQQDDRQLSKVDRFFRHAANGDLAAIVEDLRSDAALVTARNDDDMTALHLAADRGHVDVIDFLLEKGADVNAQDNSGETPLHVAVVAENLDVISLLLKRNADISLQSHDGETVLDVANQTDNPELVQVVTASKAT
Assay: fluorescence increase of NBD ligand upon binding, microplate reader
Details: labelled compound; 0.1 μM TgACBP2-GST, 0-0.25 μM ligand, PBS, room temperature, 5 min; ex 460 nm, em 540 nm; read-out: K (binding constant)

## NBD-C16:0-CoA
  pKd: 6.87
